Experimental findings from patent publication US9278982B2, “Targeting human thymidylate kinase induces DNA repair toxicity in malignant tumor cells” (NATIONAL YANG-MING UNIVERSITY, priority 2010, dated 2016) are described below.

Each structure is given as a SMILES string. “Also recorded” adds a separate entry of the source.

The target in assay [1] is T1, TMPK (Homo sapiens, UniProt P23919).
T1 sequence (P23919 1-212): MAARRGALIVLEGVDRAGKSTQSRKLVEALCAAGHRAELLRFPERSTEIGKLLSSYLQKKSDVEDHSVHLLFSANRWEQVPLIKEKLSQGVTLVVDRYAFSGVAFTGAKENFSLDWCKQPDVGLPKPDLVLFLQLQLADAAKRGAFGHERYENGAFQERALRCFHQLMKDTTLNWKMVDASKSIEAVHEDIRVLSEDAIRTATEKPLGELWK
Nature of the assay: Luciferase-coupled TMPK assay. The assay is classed as biochemical. The arrangement: GST (N, cleaved yes); made in house; host or cells: E. coli JM109 (pGEX-2T-hTMPK). The settings on record: purified hTMPK protein (0.5 μg), 10 min preincubation. As to the method:
FIG. 12. Identification of a novel hTMPK inhibitor. (A) A screen of TMPK inhibitor by luciferase-coupled assay. (B) The chemical structures of YMU1 (compound 21) and related molecules. (C) Effect of YMU1 and derivative compounds on hTMPK inhibition using purified hTMPK protein (0.5 μg) with 10 min preincubation prior to reaction using luciferase-coupled TMPK analysis. (D) Effect of YMU1 on activity of purified TMPK (0.5 μg) and GST-hTK1 protein (5 μg) with 10 min preincubation prior to reaction. Data represent mean±s.d. (n=4) (E) Molecular models of the TMPK-YMU1 complex. Left panel: TMPK/ATP/Mg+2; right panel: TMPK/YMU1. The TMPK is represented in surface electrostatic potential (upper) and structural ribbon (lower). ATP and YMU1 are shown in green and blue stick, respectively, with colored atom (O, red; S, yellow; P, orange). TMP is shown in white backbone and Mg+2 in purple. Arrow indicates the position of Asp15.
Based on the functional requirement of TMPK in DNA repair specifically in tumor cells with elevated level of R2 expression, we searched for inhibitors of hTMPK that might be useful in selectively sensitizing tumor cells to doxorubicin. […] The synthetic procedure and structural elucidation of YMU1 (compound 21) are described in the Methods of the Invention section of the application.
The TMPK reaction was started by adding purified hTMPK in 50 μl of TMPK assay buffer (100 mM Tris-HCl, pH 7.5, 100 mM KCl, 10 mM MgCl2, 50 μM ATP and 100 μM dTMP) in 96 wells plate at 25° C. for 10 min and terminated by adding 200 μl of DTNB (100 μM), followed by transferring 10 μl of reaction solution to a white 96-wellplate containing 90 μl of luciferase assay buffer (50 mM Glycine, 0.5 mM EDTA and 5 mM EDTA, pH 7.0, 0.1 μg of luciferase, 50 μM luciferin and 0.1% BSA). The luminescence was measured with a luminescence counter (Packard).

Another assay relates to panel of cell lines. Nature of the assay: Doxorubicin sensitization, MTS viability assay, summary over the panel of cell lines. The assay is classed as cell-based, human. The note with it: all these cell lines; 72 h pre-treatment. The protocol:
(§1) FIG. 16. In vitro and in vivo effect of YMU1 on doxorubicin sensitization. (A) A panel of cell lines were pre-treated with vehicle, YMU1 (compound 21), D6 (ethyl 4-(2-chloroacetyl)piperazine-1-carboxylate) or D7 (compound 28) for 3 days and were exposed to different concentration of doxorubicin for 4 h. […] The enhancement (fold) of doxorubicin sensitivity in each cell line was calculated. Data represent mean±s.d., n=3; each experiment was quadruplex. Inset indicates the IC50 value of doxorubicin in various cell lines. […] Following overnight culture, cells were refreshed with growth medium. After 14 days of culture, colonies were fixed, stained by crystal violet and counted. (C) HCT-116 p53^−/− cells were subcutaneously implanted in the right flank of Balb/c nude mice (each experimental group n=8). Arrow indicated the time of stopping drug treatment. The tumor volume was estimated as described in Methods of the Invention section. (D) After 2 weeks recovered from treatment, mice were sacrificed for tumor weight measurement. Data represent mean±s.e.m; **, P<0.01 by a two-tailed Student's t-test. (E) Ki 67 proliferation marker staining of tumor shown in left panel. Scale bar, 50 μm. (F) Model of doxorubicin sensitization by YMU1 in malignant cancer cells. Both R2/R1 and TMPK are recruited to the site of doxorubicin-induced double-strand breaks, where dATP, dGTP, dCTP, dTTP and dUTP are site-specific synthesized. Inhibition of TMPK decreases dTTP formation at DNA damage sites, causing futile DNA repair due to dUTP incorporation.
(§2) Next, various human cancer cell lines were treated with YMU1, D6 or D7 for 72 h to test the potential of TMPK inhibitor in doxorubicin sensitization. After exposure to different concentration of doxorubicin for 4 h, cells were refreshed for viability analysis after 2 days and the IC50 value for doxorubicin in each of the cell lines was determined (FIG. 16A and Table 2).
The ability of YMU1 to sensitize non-tumorigenic mammary cycling H184B5F5/M10, MCF10A, primary human mammary epithelial (HMEC) and primary renal epithelial (HREC) cells and IMR-90 embryonic lung fibroblasts to doxorubicin was much weaker.
(§3) Cells plated into a 96-well plate (10^3 cells/well) were treated and cell viability was measured by MTS assay (Promega) (Cory et al., 1991). An annexin V-fluorescein isothiocyanate (FITC) apoptosis kit (Calbiochem) was used to detect apoptosis. The cell cycle analysis was performed by staining cells with propidium iodide (PI) for fluorescence-activated cell sorter (FACS) analysis with CellQuest software.
In general terms: Tetrazolium assays rely on reduction of a dye to a coloured formazan, in cell work by metabolically active cells.

The target of assay [2] is T1, TMPK. Description: In vitro TMPK inhibitory activity of TMPK inhibitor derivatives (inhibition yield). The assay is classed as biochemical. Also noted: GST (N, cleaved yes); made in house; host or cells: E. coli JM109 (pGEX-2T-hTMPK), inferred. The settings on record: n=3 or 6, read-out: inhibition yield, normalized to compound 21 (YMU1) = 100%. The source says: Chemical structures of the different TMPK inhibitor derivatives tested for in vitro TMPK inhibitory activity and in vivo doxorubicin sensitization activity (in MDA-MB231 cells) are depicted below.

A further assay relates to MDA-MB231. Nature of the assay: Doxorubicin sensitization, MTS viability assay. The assay is classed as cell-based, human. The settings on record: MDA-MB231 cell treatment, compound at 2 μM. As to the method: as §1, §2, §3

For the compound `CCOC(=O)N1CCN(C(=O)CI)CC1` [D6, ethyl 4-(2-iodoacetyl)piperazine-1-carboxylate], the “inhibition against hTMPK” value against TMPK [1] is given as “Neither D6 (as the piperazine fragment of YMU1) nor D7 (as the O-alkylation isomer of YMU1) showed any inhibition; also recorded: do not inhibit TMPK”. Besides, in the assay with panel of cell lines, the doxorubicin sensitization effect result was “had no doxorubicin sensitization effect”.

As to `Cc1ccc2c(=O)[nH]sc2n1` [compound 3, 6-Methylisothiazolo[5,4-b]pyridin-3(2H)-one], the inhibition at 2 µM on TMPK [2] stood at 76.5%.

Regarding `Cc1cc(C)c2c(=O)[nH]sc2n1` [compound 4, 4,6-Dimethylisothiazolo[5,4-b]pyridin-3(2H)-one], at TMPK [1] (listed as D3), the “inhibition against hTMPK” value is listed as “weak inhibitory activity; also recorded: do not inhibit TMPK”. Also, the inhibition at 2 µM at TMPK [2] was 28%.

With `CCOC(=O)N1CCN(C(=O)N2Cc3ccccc3C2=O)CC1` [compound 5, Ethyl 4-(1-oxoisoindoline-2-carbonyl)piperazine-1-carboxylate], the inhibition at 2 µM on TMPK [2] was found to be 92.9%.

With `COC(=O)Cn1sc2ccccc2c1=O` [compound 6, Methyl 2-(3-oxobenzo[d]isothiazol-2(3H)-yl)acetate], the inhibition at 2 µM at TMPK [2] came to 96%.

As to `O=C(O)Cn1sc2ccccc2c1=O` [compound 8, 2-(3-oxobenzo[d]isothiazol-2(3H)-yl)acetic acid], the inhibition at 2 µM on TMPK [2] was 29.1%.

Take `Cc1cc(C)c2c(=O)n(CC(=O)O)sc2n1` [compound 9, 2-(4,6-Dimethyl-3-oxoisothiazolo[5,4-b]pyridin-2(3H)-yl)acetic acid]: the inhibition at 2 µM on TMPK [2] came to 47%.

Regarding `O=C(Cn1sc2ccccc2c1=O)N1CCNCC1` [compound 10, 2-(2-Oxo-2-(piperazin-1-yl)ethyl)benzo[d]isothiazol-3(2H)-one], at TMPK [1], the “inhibition against hTMPK” value was “considerable inhibitory function”. Moreover, in the assay on MDA-MB231, the “enhancement on doxorubicin sensitization” value is on record as “had no effect”. Moreover, the inhibition at 2 µM at TMPK [2] worked out at 96.8%.

Take `CCOC(=O)N1CCN(C(=O)Cn2sc3ccccc3c2=O)CC1` [compound 11, Ethyl 4-(2-(3-oxobenzo[d]isothiazol-2(3H)-yl)acetyl)piperazine-1-carboxylate]: the inhibition at TMPK [2] was determined as 100%.

`CC(C)(C)OC(=O)N1CCN(C(=O)Cn2sc3ccccc3c2=O)CC1` [compound 12, Tert-butyl 4-(2-(3-oxobenzo[d]isothiazol-2(3H)-yl)acetyl)piperazine-1-carboxylate]: in the assay on MDA-MB231, the “enhancement on doxorubicin sensitization” value is reported as 30 fold. Also, the inhibition at 2 µM on TMPK [2] stood at 124%.

Consider `O=C(Cn1sc2ccccc2c1=O)N1CCN(C(=O)OCc2ccccc2)CC1` [compound 13, Benzyl 4-(2-(3-oxobenzo[d]isothiazol-2(3H)-yl)acetyl)piperazine-1-carboxylate], for which the inhibition at 2 µM on TMPK [2] amounted to 127%.

Consider `O=C(Cn1sc2ccccc2c1=O)N1CCN(C(=O)Oc2ccc([N+](=O)[O-])cc2)CC1` [compound 14, 4-Nitrophenyl 4-(2-(3-oxobenzo[d]isothiazol-2(3H)-yl)acetyl)piperazine-1-carboxylate], for which the inhibition at 2 µM at TMPK [2] came to 129%.

With `C=CCN1CCN(C(=O)Cn2sc3ccccc3c2=O)CC1` [compound 15, 2-(2-(4-Allylpiperazin-1-yl)-2-oxoethyl)benzo[d]isothiazol-3(2H)-one], at TMPK [2], the inhibition at 2 µM came to 102%.

With `O=C(CN1C(=O)c2ccccc2S1(=O)=O)N1CCNCC1` [compound 16, 2-(2-Oxo-2-(piperazin-1-yl)ethyl)benzo[d]isothiazol-3(2H)-one 1,1-dioxide], the inhibition at 2 µM at TMPK [2] was determined as 11.8%.

As to `CC(C)(C)OC(=O)N1CCN(C(=O)CN2C(=O)c3ccccc3S2(=O)=O)CC1` [compound 17, Tert-butyl 4-(2-(3-oxobenzo[d]isothiazol-2(3H)-yl)acetyl)piperazine-1-carboxylate 1,1-dioxide], the inhibition at 2 µM on TMPK [2] is 10.1%.

Regarding `CC(C)(C)OC(=O)N1CCN(C(=O)CN2C(=O)c3ccccc3C2=O)CC1` [compound 18, Tert-Butyl 4-[2-(1,3-dioxo-1,3-dihydro-isoindol-2-yl)-acetyl]-piperazine-1-carboxylate], the inhibition at 2 µM on TMPK [2] was determined as 51.4%.

As for `Cc1cc(C)c2c(=O)n(CC(=O)N3CCOCC3)sc2n1` [compound 19, 4,6-Dimethyl-2-(2-morpholino-2-oxoethyl)isothiazolo[5,4-b]pyridin-3(2H)-one], the “enhancement on doxorubicin sensitization” value in the assay with MDA-MB231 is listed as “had no effect”. The inhibition at 2 µM at TMPK [2] worked out at 100%.

For the compound `Cc1cc(C)c2c(=O)n(CC(=O)N3CCNCC3)sc2n1` [compound 20, 4,6-Dimethyl-2-(2-oxo-2-(piperazin-1-yl)ethyl)isothiazolo[5,4-b]pyridin-3(2H)-one], the inhibition at 2 µM on TMPK [2] stood at 99.5%.

For the compound `Cc1cc(C)c2c(=O)n(CC(=O)N3CCN(C(=O)OC(C)(C)C)CC3)sc2n1` [compound 22, Tert-butyl 4-(2-(4,6-dimethyl-3-oxoisothiazolo[5,4-b]pyridin-2(3H)-yl)acetyl) piperazine-1-carboxylate], the inhibition at 2 µM on TMPK [2] is 112%.

With `CCOC(=O)N1CCN(C(=O)CCCn2sc3ccccc3c2=O)CC1` [compound 23, Ethyl 4-(4-(3-oxobenzo[d]isothiazol-2(3H)-yl)butanoyl)piperazine-1-carboxylate], on TMPK [2], the inhibition at 2 µM amounted to 0%.

`O=C(Cn1sc2ccccc2c1=O)N1CCN(C(=O)Cn2sc3ccccc3c2=O)CC1` [compound 24, 2,2′-(2,2′-(piperazine-1,4-diyl)bis(2-oxoethane-2,1-diyl))dibenzo[d]isothiazol-3(2H)-one]: at TMPK [2], the inhibition at 2 µM was 118%.

As to `COC(=O)COc1nsc2nc(C)cc(C)c12` [compound 25, Methyl 2-(4,6-dimethylisothiazolo[5,4-b]pyridin-3-yloxy)acetate], the inhibition at 2 µM on TMPK [2] is 7.8%.

Regarding `Cc1cc(C)c2c(OCC(=O)O)nsc2n1` [compound 26, 2-(4,6-Dimethylisothiazolo[5,4-b]pyridin-3-yloxy)acetic acid], at TMPK [2], the inhibition at 2 µM came out at 16.4%.

Usually inhibition stands for the change of the read-out against control, counted positive when it falls.
